Converted amounts (≈) assume the structure as drawn. Read-outs that look alike come from different tables or passages of the source.
What was measured:
[1] = test system: E. coli ATCC BAA-1025 (= BL 21); test: MIC 90, broth micro-dilution, ATCC strains; type: cell-based, Escherichia coli
From the text: (§1) 3.3 Protocol for MIC Determination (ATCC Strains)
(§2) Tested reference compounds. Amikacin sulfate (Cat. No. 01693, Chem-Impex), Gentamicin sulfate (Cat. No. G4918, Sigma Aldrich), Azithromycin (Cat. No. 1046056, USP), Ceftazidime Pentahydrate (Cat. No. 1098130, USP), Ciprofloxacin (Cat. No. 1134313, USP), Meropenem (Cat. No. 1392454, USP), Rifampicin (Cat. No. R0079, TCI), Tobramycin (Cat. No. 1667508, USP), Vancomycin (Cat. No. 1709007 USP).
(§3) Microbial strains. Staphylococcus aureus ATCC 29213, Staphylococcus aureus ATCC BAA-1717, Escherichia coli ATCC BAA-1025, Klebsiella pneumoniae ATCC BAA-1705, Klebsiella pneumoniae ATCC BAA-2524, Pseudomonas aeruginosa ATCC 27853, Pseudomonas aeruginosa ATCC BAA-2108, Acinetobacter baumannii ATCC BAA-1800.
(§4) Culture media and equipment. BBL™ Mueller Hinton Broth (REF 275730, Lot. 7009699, Becton Dickinson), Mueller Hinton Agar 2 (Ref. No. 97580-500G-F, Lot. No. BCBV4646, Sigma), Dulbecco's Modified Eagle's Medium (DMEM) (Cat. No. 41966-029, Gibco), Minimum Essential Medium (MEM) (Cat. No. 42360-024, Gibco), Fetal bovine serum (FBS) (Cat. No. F7524, Sigma), Non-essential amino acids (NEAA) (100×, Cat. No. 11140-035, Gibco), Sodium Pyruvate (100 mM, 100×, Cat. No. 11360-039, Gibco), Staurosporine (Cat. No. B50188, Biotrend), Cellstar 96-well plates U-bottom (Cat. No. 650180, Lot. No. E14123EB, Greiner Bio-one), CellTiter-Glo (Cat. No. G7573, Promega), 96-well plate V-bottom (Cat. No. 651201, Greiner), 96-well clear plate, U-bottom, (Cat. No. 650180, Greiner), 96-well white plate with clear bottom (Cat. No. 655098, Greiner), 96-well deep well plate 1 mL (Cat. No. 278606, Nunc), Sodium Pyruvate (100 mM, 100×, Gibco, Cat #11360-039), Incubator (Binder), Laminar flow (Thermo Scientific), BioPhotometer (Eppendorf); DEN-1B (McFarland Densitometer, Biosan); McFarland standards (polymer microparticle suspension, Biosan).
(§5) Compound preparation. The test compounds and reference antibiotics were prepared according to CLSI guidelines (Clinical and Laboratory Standards Institute (CLSI); Methods for dilution antimicrobial susceptibility tests for bacteria that grow aerobically; approved standard—ninth edition, M07-A9, Vol. 32, No. 2, 2012) as 5 mg/mL stock solutions in DMSO. Out of these DMSO solutions, 43.5 μL was transferred to 1656.5 μL of MH media in a deep well plate. Out of these working solutions 100 μL was transferred to wells in the third column of 96-well plates. Plates were previously filled with 50 μL of MH media in all wells except for the wells in the third column. After compound and antibiotic addition, 50 μL was transferred from the third to the fourth column, then from the fourth to the fifth and so on. In this manner, the compounds and antibiotics were plated in 96-well plate in serial two-fold dilutions giving a final concentration range of 64-0.125 μg/mL.
(§6) Preparation of microorganisms. Designations used for clinical isolates were from the Fidelta strain collection bank. Microorganisms used were all revived from skim milk storage at −70° C. by plating them on MH agar plates. The following day the single colony of each microorganism was again streaked on fresh agar plates. The next day, using the direct colony suspension method, broth solutions that achieve turbidity equivalent to 0.5 McFarland standard for each microorganism were prepared. […] Out of these suspensions, actual inoculums were prepared by diluting them 100× with MH media giving a final microorganism count of 2-8×10^5 CFU/mL. For each strain of microorganisms, 20 mL of these inoculum solutions were prepared. From the second to the twelfth column of 96-well plates, 50 μL of these solutions were transferred per well. To the first column, 50 μL per well of pure growth media was added. In this manner the first column was used as sterility control of media, the second column was used as control of microorganism's growth and the rest of the plate was used for MIC determination. All plates were incubated for 16-24 h at 37° C. […]

S. aureus ATCC 29213 = test: MIC 90, broth micro-dilution, ATCC strains; type: cell-based, Staphylococcus aureus
From the text: as §1, §2, §3, §4, §5, §6

P. aeruginosa ATCC 27853 = test: MIC 90, broth micro-dilution, ATCC strains; type: cell-based, Pseudomonas aeruginosa
From the text: as §1, §2, §3, §4, §5, §6

[2] = test system: P. aeruginosa ATCC BAA-2108; test: MIC 90, resistant ATCC strains of the ESKAPE panel; type: cell-based; conditions: Pseudomonas aeruginosa, ATCCBAA2108, MDR
From the text: as §1, §2, §3, §4, §5, §6

[3] = test system: K. pneumoniae ATCC BAA-2524; test: MIC 90, resistant ATCC strains of the ESKAPE panel; type: cell-based; conditions: Klebsiella pneumoniae, ATCCBAA2524, OXA-48
From the text: as §1, §2, §3, §4, §5, §6

[4] = test system: A. baumannii ATCC BAA-1800; test: MIC 90, resistant ATCC strains of the ESKAPE panel; type: cell-based; conditions: Acinetobacter baumannii, ATCCBAA1800, MDR
From the text: as §1, §2, §3, §4, §5, §6

[5] = test system: K. pneumoniae ATCC BAA-1705; test: MIC 90, resistant ATCC strains of the ESKAPE panel; type: cell-based; conditions: Klebsiella pneumoniae, ATCCBAA1705, KPC
From the text: as §1, §2, §3, §4, §5, §6

S. aureus ATCC BAA-1717 = test: MIC 90, resistant ATCC strains of the ESKAPE panel; type: cell-based; conditions: Staphylococcus aureus, MRSA
From the text: as §1, §2, §3, §4, §5, §6

[6] = Escherichia coli, ATCCBAA1025, read-out: MIC 90
[7] = Staphylococcus aureus, ATCC29213, read-out: MIC 90
[8] = Pseudomonas aeruginosa, ATCC27853, read-out: MIC 90

SMILES	MIC90 [1] [µM]	MIC90 (S. aureus ATCC 29213) [µM]	MIC90 (P. aeruginosa ATCC 27853) [µM]	MIC90 [2] [µg/mL]	MIC90 [3] [µg/mL]	MIC90 [4] [µg/mL]	MIC90 [5] [µg/mL]	MIC90 (S. aureus ATCC BAA-1717) [µg/mL]	other results
NCC[C@H](O)C(=O)N[C@@H]1C[C@H](N)[C@@H](O[C@H]2O[C@H](CN)[C@@H](O)[C@@H](O)[C@H]2O)[C@H](O)[C@H]1O[C@H]1O[C@H](CO)[C@@H](O)[C@H](N)[C@H]1O [ABX3002, 3′Epi-KanaA-AHB]	32 (≈ 18.7 µg/mL)	16 (≈ 9.37 µg/mL)	32 (≈ 18.7 µg/mL)						
N=C(N)NC1[C@@H](O)C(OC2[C@@H](F)[C@H](O[C@H]3OC(CN)[C@@H](O)[C@H](O)C3O)C(N)C[C@H]2NC(=O)[C@@H](O)CCN)O[C@H](CO)[C@H]1O (stereo partly drawn) [ABX3003, 3′epi-KanaA-AHB-F-Gua]									MIC90 [1, 6]: 4 µM (≈ 2.52 µg/mL); MIC90 (S. aureus ATCC 29213; [7]): 2 µM (≈ 1.26 µg/mL); MIC90 (P. aeruginosa ATCC 27853; [8]): 8 µM (≈ 5.04 µg/mL)
NCCC(O)C(=O)NC1CC(N)C(OC2OC(CN)C(O)C(O)C2O)C(F)C1OC1OC(CO)C(O)C(N)C1O (stereo not drawn) [ABX3005, 3′Epi-KanaA-AHB-F]	8 (≈ 4.7 µg/mL)	4 (≈ 2.35 µg/mL)	8 (≈ 4.7 µg/mL)						
NCC[C@H](O)C(=O)N[C@@H]1CC(N)[C@@H](O[C@H]2OC(CN)[C@@H](O)[C@@H](O)C2N)[C@H](O)C1OC1O[C@H](CO)[C@@H](O)C(N)[C@H]1O (stereo partly drawn) [ABX4002, 3′Epi-KanaB-AHB]	8 (≈ 4.68 µg/mL)	2 (≈ 1.17 µg/mL)	4 (≈ 2.34 µg/mL)						
NCC[C@H](O)C(=O)N[C@@H]1CC(N)[C@@H](O[C@H]2OC(CN)[C@@H](O)[C@@H](O)C2N)[C@H](F)C1OC1O[C@H](CO)[C@@H](O)C(N)[C@H]1O (stereo partly drawn) [ABX4003, 3′Epi-KanaB-AHB-F]	4 (≈ 2.35 µg/mL)	4 (≈ 2.35 µg/mL)	8 (≈ 4.69 µg/mL)						
N=C(N)NC1[C@@H](O)C(OC2[C@@H](F)[C@H](O[C@H]3OC(CN)[C@@H](O)[C@H](O)C3N)C(N)C[C@H]2NC(=O)[C@@H](O)CCN)O[C@H](CO)[C@H]1O (stereo partly drawn) [ABX4004, 3′epi-KanaB-AHB-F-Gua]									MIC90 [1, 6]: 2 µM (≈ 1.26 µg/mL); MIC90 (S. aureus ATCC 29213; [7]): 2 µM (≈ 1.26 µg/mL); MIC90 (P. aeruginosa ATCC 27853; [8]): 4 µM (≈ 2.51 µg/mL)
N=C(N)N[C@@H]1[C@@H](O)[C@@H](O[C@@H]2[C@@H](O)[C@H](O[C@H]3O[C@H](CN)[C@@H](O)[C@@H](O)[C@H]3N)[C@@H](N)C[C@H]2NC(=O)[C@@H](O)CCN)O[C@H](CO)[C@H]1O [ABX4005, 3′Epi-KanaB-AHB-Gua]	8 (≈ 5.01 µg/mL)	2 (≈ 1.25 µg/mL)	4 (≈ 2.51 µg/mL)						
N=C(N)NC1[C@@H](O)C(OC2[C@@H](F)[C@H](O[C@H]3OC(CN)[C@@H](O)[C@H](O)C3N)C(N)C[C@H]2NC(=O)[C@@H](O)CCN)O[C@H](CO)[C@H]1O (stereo partly shown) [ABX4006, KanaB-AHB-F-Gua]				16 (≈ 25.5 µM)	< 0.125	16 (≈ 25.5 µM)	2 (≈ 3.18 µM)	4 (≈ 6.36 µM)	
NCC[C@H](O)C(=O)N[C@@H]1CC(N)[C@@H](O[C@H]2OC(CN)[C@@H](O)CC2N)[C@H](O)C1OC1O[C@H](CO)[C@@H](O)C(N)[C@H]1O (stereo partly shown) [ABX5004, Tobra-AHB]	2 (≈ 1.14 µg/mL)	1 (≈ 0.569 µg/mL)	4 (≈ 2.27 µg/mL)						
N=C(N)NC1[C@@H](O)C(OC2[C@@H](O)[C@H](O[C@H]3OC(CN)[C@@H](O)CC3N)C(N)C[C@H]2NC(=O)[C@@H](O)CCN)O[C@H](CO)[C@H]1O (stereo partly shown) [ABX5005, Tobra-AHB-Gua]	2 (≈ 1.22 µg/mL)	1 (≈ 0.611 µg/mL)	4 (≈ 2.44 µg/mL)						
NCC[C@H](O)C(=O)N[C@@H]1CC(N)[C@@H](O[C@H]2OC(CN)[C@@H](O)CC2N)[C@H](F)C1OC1O[C@H](CO)[C@@H](O)C(N)[C@H]1O (stereo partly shown) [ABX5024, Tobra-AHB-F]	1 (≈ 0.571 µg/mL)	1 (≈ 0.571 µg/mL)	2 (≈ 1.14 µg/mL)						
N=C(NCCO)NC1[C@@H](O)C(OC2[C@@H](F)[C@H](O[C@H]3OC(CN)[C@@H](O)CC3N)C(N)C[C@H]2NC(=O)[C@@H](O)CCN)O[C@H](CO)[C@H]1O (stereo partly shown) [ABX5029, Tobra-AHB-F-Gua 2-hydroxy-ethyl]				4 (≈ 6.09 µM)	0.25 (≈ 0.381 µM)	16 (≈ 24.4 µM)	4 (≈ 6.09 µM)	0.5 (≈ 0.761 µM)	
N=C(NCCCN)NC1[C@@H](O)C(OC2[C@@H](F)[C@H](O[C@H]3OC(CN)[C@@H](O)CC3N)C(N)C[C@H]2NC(=O)[C@@H](O)CCN)O[C@H](CO)[C@H]1O (stereo partly shown) [ABX5030, Tobra-AHB-F-Gua-3-amino-propyl]									MIC90 [1, 6]: 1 µM (≈ 0.67 µg/mL); MIC90 (S. aureus ATCC 29213; [7]): 0.5 µM (≈ 0.335 µg/mL); MIC90 (P. aeruginosa ATCC 27853; [8]): 0.5 µM (≈ 0.335 µg/mL)
CNCCNC(=N)NC1[C@@H](O)C(OC2[C@@H](F)[C@H](O[C@H]3OC(CN)[C@@H](O)CC3N)C(N)C[C@H]2NC(=O)[C@@H](O)CCN)O[C@H](CO)[C@H]1O (stereo partly shown) [ABX5038, Tobra-AHB-F-Gua 2-(methylamino)ethyl]				4 (≈ 5.97 µM)	0.5 (≈ 0.747 µM)	32 (≈ 47.8 µM)	8 (≈ 11.9 µM)	0.5 (≈ 0.747 µM)	
N=C(NC[C@@H]1CCNC1)NC1[C@@H](O)C(OC2[C@@H](F)[C@H](O[C@H]3OC(CN)[C@@H](O)CC3N)C(N)C[C@H]2NC(=O)[C@@H](O)CCN)O[C@H](CO)[C@H]1O (stereo partly drawn) [ABX5039, Tobra-AHB-F-Gua (R) pyrrolidine-3-ylmethyl]				8 (≈ 11.5 µM)	0.5 (≈ 0.719 µM)	16 (≈ 23 µM)	4 (≈ 5.75 µM)	0.5 (≈ 0.719 µM)	
N=C(NC[C@@H]1CNCCO1)NC1[C@@H](O)C(OC2[C@@H](F)[C@H](O[C@H]3OC(CN)[C@@H](O)CC3N)C(N)C[C@H]2NC(=O)[C@@H](O)CCN)O[C@H](CO)[C@H]1O (stereo partly drawn) [ABX5040, Tobra-AHB-F-Gua (S) morpholin-2-yl methyl]				8 (≈ 11.2 µM)	0.5 (≈ 0.702 µM)	32 (≈ 45 µM)	8 (≈ 11.2 µM)	0.5 (≈ 0.702 µM)	

From patent publication US20220127297A1, “Novel Antibacterial 3"-Derivatives Of 4,6-Disubstituted 2,5-Dideoxystreptamine Aminoglycoside Antibiotics” (AGILeBiotics B.V., priority 2018, published 2022)
